Patent US10428044B2, “3-amino-1,5,6,7-tetrahydro-4H-indol-4-ones” (Bayer Pharma Aktiengesellschaft, priority 2014, dated 2019)

These compounds were tested against (recombinant) catalytic domain of human Bub1 (amino acids 704-1085) (Homo sapiens (Human), UniProt O43683) (assay: Bub1 kinase assay (TR-FRET)). Conditions: ATP 10 μM final, peptide substrate 1 μM final, 60 min at 22° C., read-out: Biological Assay: Bub1 kinase assay median IC50.
Type: biochemical
Procedure, shortened: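 Readout was TR-FRET between a Eu-labeled antibody complex recognizing phosphoserine and streptavidin-XL665 on the biotinylated peptide, after EDTA stop and 1 h at 22° C. The kinase reaction ran for 60 min at 22° C. Values are means or medians of repeat tests, from 4-parameter fits normalized to enzyme-free and inhibitor-free controls.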

Sequence of (recombinant) catalytic domain of human Bub1 (amino acids 704-1085) (O43683 704-1085): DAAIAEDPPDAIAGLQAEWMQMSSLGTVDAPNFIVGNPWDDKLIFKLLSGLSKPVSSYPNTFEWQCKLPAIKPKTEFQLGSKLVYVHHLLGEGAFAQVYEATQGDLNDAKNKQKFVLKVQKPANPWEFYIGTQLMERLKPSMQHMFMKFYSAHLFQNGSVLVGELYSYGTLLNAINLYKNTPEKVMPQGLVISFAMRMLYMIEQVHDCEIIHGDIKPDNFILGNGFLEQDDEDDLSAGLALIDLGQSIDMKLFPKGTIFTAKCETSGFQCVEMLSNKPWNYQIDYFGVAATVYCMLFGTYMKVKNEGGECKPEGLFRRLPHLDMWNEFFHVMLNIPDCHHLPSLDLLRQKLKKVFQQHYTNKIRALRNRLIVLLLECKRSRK

Row | Structure (SMILES) | IC50 [nM]
1 | CC1(C)CC(=O)c2c([nH]c(-c3ccncc3OCC(F)(F)F)c2Nc2ccccc2)C1 [Example 412, 6,6-dimethyl-3-(phenylamino)-2-[3-(2,2,2-trifluoroethoxy)pyridin-4-yl]-1,5,6,7-tetrahydro-4H-indol-4-one] | 28.4
2 | O=C(NCCCl)Nc1cc(-c2[nH]c3c(c2Nc2ccccc2)C(=O)CCC3)ccn1 [Example 388, 1-(2-chloroethyl)-3-{4-[4-oxo-3-(phenylamino)-4,5,6,7-tetrahydro-1H-indol-2-yl]pyridin-2-yl}urea] | 43.4
3 | O=C(COc1ccon1)Nc1cc(-c2[nH]c3c(c2Nc2ccccc2)C(=O)CCC3)ccn1 [Example 348, 2-(1,2-oxazol-3-yloxy)-N-{4-[4-oxo-3-(phenylamino)-4,5,6,7-tetrahydro-1H-indol-2-yl]pyridin-2-yl}acetamide] | 10.2
4 | O=C1CCCc2[nH]c(-c3ccnc(NC(=O)C4C[C@H]4F)c3)c(Nc3ccccc3)c21 (mixture of isomers) [Example 252, rel-(S,S/R,R)-2-fluoro-N-{4-[4-oxo-3-(phenylamino)-4,5,6,7-tetrahydro-1H-indol-2-yl]pyridin-2-yl}cyclopropanecarboxamide] | 16.6
5 | CC1(C)CC(=O)c2c([nH]c(-c3ccncc3)c2Nc2ccc(F)c(C(F)(F)F)c2)C1 [Example 129, 3-{[4-fluoro-3-(trifluoromethyl)phenyl]amino}-6,6-dimethyl-2-(pyridin-4-yl)-1,5,6,7-tetrahydro-4H-indol-4-one] | 447
6 | CC1(C)CC(=O)c2c([nH]c(-c3ccncc3)c2Nc2ncccc2CO)C1 [Example 511, 3-{[3-(hydroxymethyl)pyridin-2-yl]amino}-6,6-dimethyl-2-(pyridin-4-yl)-1,5,6,7-tetrahydro-4H-indol-4-one] | 65.2
7 | O=C(COC[C@@H]1CCCCO1)Nc1cc(-c2[nH]c3c(c2Nc2ccccc2)C(=O)CCC3)ccn1 [Example 343, N-{4-[4-oxo-3-(phenylamino)-4,5,6,7-tetrahydro-1H-indol-2-yl]pyridin-2-yl}-2-[(2S)-tetrahydro-2H-pyran-2-ylmethoxy]acetamide] | 8.45
8 | O=C(Cc1cc[nH]c1)Nc1cc(-c2[nH]c3c(c2Nc2ccccc2)C(=O)CCC3)ccn1 [Example 286, N-{4-[4-oxo-3-(phenylamino)-4,5,6,7-tetrahydro-1H-indol-2-yl]pyridin-2-yl}-2-(1H-pyrrol-3-yl)acetamide] | 21.6
9 | CC1(C)CC(=O)c2c([nH]c(-c3ccnc(N4CCCC4)c3)c2Nc2ccccc2)C1 [Example 126, 6,6-dimethyl-3-(phenylamino)-2-[2-(pyrrolidin-1-yl)pyridin-4-yl]-1,5,6,7-tetrahydro-4H-indol-4-one] | 14500
10 | CCNC(=O)Nc1cc(-c2[nH]c3c(c2Nc2ccccc2)C(=O)CCC3)ccn1 [Example 377, 1-ethyl-3-{4-[4-oxo-3-(phenylamino)-4,5,6,7-tetrahydro-1H-indol-2-yl]pyridin-2-yl}urea] | 30.1
11 | O=C(Cc1ccco1)Nc1cc(-c2[nH]c3c(c2Nc2ccccc2)C(=O)CCC3)ccn1 [Example 288, 2-(furan-2-yl)-N-{4-[4-oxo-3-(phenylamino)-4,5,6,7-tetrahydro-1H-indol-2-yl]pyridin-2-yl}acetamide] | 16.7
12 | O=C1CCCc2[nH]c(-c3ccnc(NC(=O)C4CC4)c3)c(Nc3cccc(F)c3)c21 [Example 47, N-(4-{3-[(3-fluorophenyl)amino]-4-oxo-4,5,6,7-tetrahydro-1H-indol-2-yl}pyridin-2-yl)cyclopropanecarboxamide] | 13.7
13 | O=C1CCCc2[nH]c(-c3ccnc(NC(=S)NCC(F)(F)F)c3)c(Nc3ccccc3)c21 [Example 394, 1-{4-[4-oxo-3-(phenylamino)-4,5,6,7-tetrahydro-1H-indol-2-yl]pyridin-2-yl}-3-(2,2,2-trifluoroethyl)thiourea] | 1150
14 | Cc1ccc(CO)c(Nc2c(-c3ccncc3)[nH]c3c2C(=O)CC(C)(C)C3)c1 [Example 481, 3-{[2-(hydroxymethyl)-5-methylphenyl]amino}-6,6-dimethyl-2-(pyridin-4-yl)-1,5,6,7-tetrahydro-4H-indol-4-one] | 78.6
15 | N#CC1(C(=O)Nc2cc(-c3[nH]c4c(c3Nc3ccccc3)C(=O)CCC4)ccn2)CC1 [Example 246, 1-cyano-N-{4-[4-oxo-3-(phenylamino)-4,5,6,7-tetrahydro-1H-indol-2-yl]pyridin-2-yl}cyclopropanecarboxamide] | 60.2
16 | O=C1CCCc2[nH]c(-c3ccnc(NC(=S)NC4CC4)c3)c(Nc3ccccc3)c21 [Example 395, 1-cyclopropyl-3-{4-[4-oxo-3-(phenylamino)-4,5,6,7-tetrahydro-1H-indol-2-yl]pyridin-2-yl}thiourea] | 213
17 | COC(C)(C)C(=O)Nc1cc(-c2[nH]c3c(c2Nc2ccccc2)C(=O)CCC3)ccn1 [Example 326, 2-methoxy-2-methyl-N-{4-[4-oxo-3-(phenylamino)-4,5,6,7-tetrahydro-1H-indol-2-yl]pyridin-2-yl}propanamide] | 608
18 | O=C(Nc1cc(-c2[nH]c3c(c2Nc2ccccc2)C(=O)CCC3)ccn1)NC1CC1 [Example 379, 1-cyclopropyl-3-{4-[4-oxo-3-(phenylamino)-4,5,6,7-tetrahydro-1H-indol-2-yl]pyridin-2-yl}urea] | 36.6
19 | O=C(Nc1cc(-c2[nH]c3c(c2Nc2ccccc2)C(=O)CCC3)ccn1)c1ccc(F)c(F)c1 [Example 451, 3,4-difluoro-N-{4-[4-oxo-3-(phenylamino)-4,5,6,7-tetrahydro-1H-indol-2-yl]pyridin-2-yl}benzamide] | 8.82
20 | CC1(C)CC(=O)c2c([nH]c(-c3ccncc3)c2Nc2ccc(F)cc2CO)C1 [Example 485, 3-{[4-fluoro-2-(hydroxymethyl)phenyl]amino}-6,6-dimethyl-2-(pyridin-4-yl)-1,5,6,7-tetrahydro-4H-indol-4-one] | 5.84
21 | CC(=O)Nc1cc(-c2[nH]c3c(c2Nc2ccc(F)cc2)C(=O)CC(C(C)C)C3)ccn1 (centres unmarked) [Example 321, N-{4-[3-[(4-fluorophenyl)amino]-4-oxo-6-(propan-2-yl)-4,5,6,7-tetrahydro-1H-indol-2-yl]pyridin-2-yl}acetamide] | 11.2

Other lines, results leading:

Row | IC50 [nM] | Structure (SMILES)
22 | 47.1 | CC1(C)CC(=O)c2c([nH]c(-c3ccncc3)c2Nc2ccc(Br)cc2)C1 [Example 72, 3-[(4-bromophenyl)amino]-6,6-dimethyl-2-(pyridin-4-yl)-1,5,6,7-tetrahydro-4H-indol-4-one]
23 | 6.14 | Cn1ccc(C(=O)Nc2cc(-c3[nH]c4c(c3Nc3ccccc3)C(=O)CC(C)(C)C4)ccn2)n1 [Example 504, N-{4-[6,6-dimethyl-4-oxo-3-(phenylamino)-4,5,6,7-tetrahydro-1H-indol-2-yl]pyridin-2-yl}-1-methyl-1H-pyrazole-3-carboxamide]
24 | 2260 | CC1(C)CC(=O)c2c([nH]c(-c3ccncc3)c2Nc2cnc3ccccc3c2)C1 [Example 66, 6,6-dimethyl-2-(pyridin-4-yl)-3-(quinolin-3-ylamino)-1,5,6,7-tetrahydro-4H-indol-4-one]
25 | 32.7 | CCn1c2c(c(Nc3ccccc3)c1-c1ccncc1)C(=O)CC(C)(C)C2 [Example 181, 1-ethyl-6,6-dimethyl-3-(phenylamino)-2-(pyridin-4-yl)-1,5,6,7-tetrahydro-4H-indol-4-one]
26 | 196 | CC1(C)CC(=O)c2c([nH]c(-c3ccncc3)c2Nc2cccnc2)C1 [Example 63, 6,6-dimethyl-2-(pyridin-4-yl)-3-(pyridin-3-ylamino)-1,5,6,7-tetrahydro-4H-indol-4-one]
27 | 148 | CNc1cc(-c2[nH]c3c(c2Nc2ccccc2)C(=O)CC(C)(C)C3)ccn1 [Example 145, 6,6-dimethyl-2-[2-(methylamino)pyridin-4-yl]-3-(phenylamino)-1,5,6,7-tetrahydro-4H-indol-4-one]
28 | 7.77 | Cn1cc(C(=O)Nc2cc(-c3[nH]c4c(c3Nc3ccccc3)C(=O)CC(C)(C)C4)ccn2)cn1 [Example 506, N-{4-[6,6-dimethyl-4-oxo-3-(phenylamino)-4,5,6,7-tetrahydro-1H-indol-2-yl]pyridin-2-yl}-1-methyl-1H-pyrazole-4-carboxamide]
29 | 99.6 | CC1CC(=O)c2c(Nc3ccccc3)c(-c3ccncc3)n(C)c2C1 (centres unmarked) [Example 178, 1,6-dimethyl-3-(phenylamino)-2-(pyridin-4-yl)-1,5,6,7-tetrahydro-4H-indol-4-one]
30 | 1240 | CCO/N=C1\CC(C)(C)Cc2[nH]c(-c3ccncc3)c(Nc3ccccc3)c21 [Example 491, 4-(ethoxyimino)-6,6-dimethyl-N-phenyl-2-(pyridin-4-yl)-4,5,6,7-tetrahydro-1H-indol-3-amine]
31 | 743 | COC(C)c1cccc(Nc2c(-c3ccncc3)[nH]c3c2C(=O)CC(C)(C)C3)c1 (centres unmarked) [Example 156, 3-{[3-(1-methoxyethyl)phenyl]amino}-6,6-dimethyl-2-(pyridin-4-yl)-1,5,6,7-tetrahydro-4H-indol-4-one]
32 | 273 | Cn1nccc1-c1cccc(Nc2c(-c3ccncc3)[nH]c3c2C(=O)CC(C)(C)C3)c1 [Example 417, 6,6-dimethyl-3-{[3-(1-methyl-1H-pyrazol-5-yl)phenyl]amino}-2-(pyridin-4-yl)-1,5,6,7-tetrahydro-4H-indol-4-one]
33 | 12.1 | O=C1CCCc2[nH]c(-c3ccncc3)c(Nc3ccccc3)c21 [Example 9, 3-(phenylamino)-2-(pyridin-4-yl)-1,5,6,7-tetrahydro-4H-indol-4-one]
34 | 4560 | CC(=O)Nc1cccc(Nc2c(-c3ccncc3)[nH]c3c2C(=O)CC(C)(C)C3)c1 [Example 109, N-(3-{[6,6-dimethyl-4-oxo-2-(pyridin-4-yl)-4,5,6,7-tetrahydro-1H-indol-3-yl]amino}phenyl)acetamide]
35 | 6.88 | CC(=O)Nc1cc(-c2[nH]c3c(c2Nc2ccccc2)C(=O)CC(CF)C3)ccn1 (centres unmarked) [Example 461, N-{4-[6-(fluoromethyl)-4-oxo-3-(phenylamino)-4,5,6,7-tetrahydro-1H-indol-2-yl]pyridin-2-yl}acetamide]
